The values that follow come from patent US7994204B2, “Binding inhibitor of sphingosine-1-phosphate” (Taisho Pharmaceutical Co., Ltd, priority 2006, dated 2011).

In this experiment the target is T1, human Edg-1 (S1P1) (Homo sapiens, UniProt P21453).
T1 construct: expressed in transfected cells; host or cells: HEK-293
T1 sequence (P21453 whole entry): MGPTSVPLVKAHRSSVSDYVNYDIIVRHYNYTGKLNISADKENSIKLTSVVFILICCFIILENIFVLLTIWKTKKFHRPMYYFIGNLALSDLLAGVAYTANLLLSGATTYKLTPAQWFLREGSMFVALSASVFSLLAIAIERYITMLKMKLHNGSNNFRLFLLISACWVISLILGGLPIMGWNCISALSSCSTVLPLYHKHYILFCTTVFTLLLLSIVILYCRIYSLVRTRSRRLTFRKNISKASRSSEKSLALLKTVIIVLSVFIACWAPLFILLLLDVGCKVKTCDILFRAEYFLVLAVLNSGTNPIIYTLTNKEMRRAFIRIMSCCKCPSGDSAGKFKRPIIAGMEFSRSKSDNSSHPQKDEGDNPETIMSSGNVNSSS
Kind of experiment: S1P1 binding inhibition test (membrane, [33P]-S1P). As to conditions: compound 10 μM; [33P]-S1P 0.1 nM; human Edg-1 (S1P1) HEK-293 membrane fraction; read-out: Binding test (membrane) % inhibition (10 μM). Here is the method: The membrane fraction was obtained by treating the cells with a solubilizing buffer (1 mM Tris/HCl, pH 7.2) for 10 minutes on ice, centrifuging at 1000×g for 5 minutes to remove insoluble fractions, and then centrifuging at 40000×g for 30 minutes at 4° C. The resulting membrane fraction was dissolved in a binding buffer (20 mM Tris-HCl, pH 7.4, 100 mM NaCl, 15 mM NaF, 2 mM deoxypyridoxine, 4 mg/mL fatty acid-free BSA), and then [^33P]-S1P (manufactured by ARC, final concentration 0.1 nM) and a DMSO solution (final concentration of the compound 10^−5 M, final concentration of DMSO 0.1%) of the test compound were added. Thereafter, the mixture was stirred and then treated for one hour at 30° C. Using a harvester, the membrane fraction was harvested onto unifilter-96 GF/C filter (manufactured by Perkin Elmer), washing was carried out four times with the binding buffer, and the filter was dried. Twenty five μL Microscint 0 (manufactured by Perkin Elmer) was added, and radioactivity was measured using Top Count NXT (manufactured by Packard) to calculate the amount (A) of [^33P]-S1P bound to the membrane fraction at the time when the compound was added.
The same procedure was carried out in the absence of the test compound, and the amount (B) of [^33P]-S1P bound was calculated. Further, the same procedure was carried out in the absence of the test compound by use of HEK-293 cells to which no Edg-1 (S1P1) gene was introduced, and the background amount (C) of [^33P]-S1P bound was calculated.
Inhibition rate (%)=[1−(A−C)/(B−C)]×100.
Moreover, the concentration required for a test compound to produce 50% inhibition of the binding caused in the absence of the test compound was also calculated (IC50). The above membrane system binding test was performed in the presence of a test compound at various concentrations to calculate the inhibition rate of Edg-1(S1P1) binding at each concentration according to the above equation, followed by calculating an IC50 value for each compound with data analysis software, Origin (Lightstone Corp., Japan).
For `CCn1c(C(C)NS(=O)(=O)c2ccc(C(C)=O)cc2)cnc1Oc1ccc(C)cc1` (stereo not drawn) [Compound 3], the inhibition at 10 µM came out at 96.7%. The result for `CCn1c(C(C)NS(=O)(=O)c2ccccc2)cnc1Oc1ccc(C)cc1` (stereo not drawn) [Compound 4] reads 72.8%; that for `CCn1c(C(C)NS(=O)(=O)c2ccc(Br)cc2)cnc1Oc1ccc(C)cc1` (stereo not drawn) [Compound 5], 106%; that for `CCn1c(C(C)NS(=O)(=O)c2ccc(C(C)(C)C)cc2)cnc1Oc1ccc(C)cc1` (stereo not drawn) [Compound 6], 54.7%. The result for `CCn1c(C(C)NS(=O)(=O)c2ccccc2Br)cnc1Oc1ccc(C)cc1` (stereo not drawn) [Compound 7] reads 63.3%; that for `CCn1c(C(C)NS(=O)(=O)c2cccc(Br)c2)cnc1Oc1ccc(C)cc1` (stereo not drawn) [Compound 9], 113%; that for `CCn1c(C(C)NS(=O)(=O)c2ccc(Br)cc2OC(F)(F)F)cnc1Oc1ccc(C)cc1` (stereo not drawn) [Compound 10], 68.6%. To `CCn1c(C(C)NS(=O)(=O)c2ccc(Cl)cc2)cnc1Oc1ccc(C)cc1` (stereo not drawn) [Compound 11] belongs 103%; to `CCn1c(C(C)NS(=O)(=O)c2ccc(Cl)c3nonc23)cnc1Oc1ccc(C)cc1` (stereo not drawn) [Compound 12], 68.1%.

As to `CCn1c(C(C)NS(=O)(=O)c2cccc(C#N)c2)cnc1Oc1ccc(C)cc1` (stereo not drawn) [Compound 13], the inhibition at 10 µM was 64.4%.

Turning to `CCn1c(C(C)NS(=O)(=O)c2sc3ccc(Cl)cc3c2C)cnc1Oc1ccc(C)cc1` (stereo not drawn) [Compound 14], the inhibition at 10 µM was found to be 76.5%. To `CCn1c(C(C)NS(=O)(=O)c2ccc(C)c(Cl)c2)cnc1Oc1ccc(C)cc1` (stereo not drawn) [Compound 15] belongs 108%; to `CCn1c(C(C)NS(=O)(=O)c2cc(C)c(Cl)cc2C)cnc1Oc1ccc(C)cc1` (stereo not drawn) [Compound 16], 109%. To `CCn1c(C(C)NS(=O)(=O)c2cc(Cl)ccc2Cl)cnc1Oc1ccc(C)cc1` (stereo not drawn) [Compound 17] belongs 80%. `CCn1c(C(C)NS(=O)(=O)c2c(Cl)cccc2Cl)cnc1Oc1ccc(C)cc1` (stereo not drawn) [Compound 18]: the inhibition at 10 µM is 72.8%. To `CCn1c(C(C)NS(=O)(=O)c2ccc(OC)c(OC)c2)cnc1Oc1ccc(C)cc1` (stereo not drawn) [Compound 19] belongs 87.3%; to `CCc1ccc(S(=O)(=O)NC(C)c2cnc(Oc3ccc(C)cc3)n2CC)cc1` (stereo not drawn) [Compound 21], 66.8%; to `CCn1c(C(C)NS(=O)(=O)c2ccc(F)cc2)cnc1Oc1ccc(C)cc1` (stereo not drawn) [Compound 22], 92.1%. To `CCn1c(C(C)NS(=O)(=O)c2ccc(OC)cc2)cnc1Oc1ccc(C)cc1` (stereo not drawn) [Compound 23] belongs 98.6%.

With `CCn1c(C(C)NS(=O)(=O)c2ccc(S(C)(=O)=O)cc2)cnc1Oc1ccc(C)cc1` (stereo not drawn) [Compound 25], the inhibition at 10 µM turned out to be 62%. The result for `CCn1c(C(C)NS(=O)(=O)c2cccc3ccccc23)cnc1Oc1ccc(C)cc1` (stereo not drawn) [Compound 27] reads 68.5%.

With `CCn1c(C(C)NS(=O)(=O)c2ccc3ccccc3c2)cnc1Oc1ccc(C)cc1` (stereo not drawn) [Compound 28], the inhibition at 10 µM was 114%.

Consider `CCn1c(C(C)NS(=O)(=O)CCc2cccc3ccccc23)cnc1Oc1ccc(C)cc1` (stereo not drawn) [Compound 29], for which the inhibition at 10 µM was 52.5%. For the molecule `CCn1c(C(C)NS(=O)(=O)c2c(F)c(F)c(F)c(F)c2F)cnc1Oc1ccc(C)cc1` (stereo not drawn) [Compound 30], the inhibition at 10 µM came out at 75.8%. To `CCn1c(C(C)NS(=O)(=O)c2ccc(I)cc2)cnc1Oc1ccc(C)cc1` (stereo not drawn) [Compound 31] belongs 93.3%; to `CCn1c(C(C)NS(=O)(=O)/C=C/c2ccccc2)cnc1Oc1ccc(C)cc1` (stereo not drawn) [Compound 32], 93.5%. To `CCn1c(C(C)NS(=O)(=O)c2cc(Cl)c(Cl)cc2Cl)cnc1Oc1ccc(C)cc1` (stereo not drawn) [Compound 33] belongs 115%. To `CCn1c(C(C)NS(=O)(=O)c2ccc(C)cc2)cnc1Oc1ccc(C)cc1` (stereo not drawn) [Compound 35] belongs 98.1%.

For the molecule `CCn1c(C(C)NS(=O)(=O)c2cccc(C(F)(F)F)c2)cnc1Oc1ccc(C)cc1` (stereo not drawn) [Compound 37], the inhibition at 10 µM is 98.5%. To `CCn1c(C(C)NS(=O)(=O)c2ccccc2C)cnc1Oc1ccc(C)cc1` (stereo not drawn) [Compound 38] belongs 79.8%; to `CCn1c(C(C)NS(=O)(=O)c2ccc(OC(F)(F)F)cc2)cnc1Oc1ccc(C)cc1` (stereo not drawn) [Compound 39], 64.8%. To `C=Cc1ccc(S(=O)(=O)NC(C)c2cnc(Oc3ccc(C)cc3)n2CC)cc1` (stereo not drawn) [Compound 40] belongs 81.2%; to `CCn1c(C(C)NS(=O)(=O)c2cccc(C)c2)cnc1Oc1ccc(C)cc1` (stereo not drawn) [Compound 41], 82.3%; to `CCn1c(C(C)NS(=O)(=O)c2ccc(C(F)(F)F)cc2)cnc1Oc1ccc(C)cc1` (stereo not drawn) [Compound 44], 93.5%. The result for `CCn1c(C(C)NS(=O)(=O)c2cc(C)ccc2C)cnc1Oc1ccc(C)cc1` (stereo not drawn) [Compound 45] reads 85.8%; that for `CCn1c(C(C)NS(=O)(=O)c2ccc(-c3csnn3)s2)cnc1Oc1ccc(C)cc1` (stereo not drawn) [Compound 46], 58.8%. `CCn1c(C(C)NS(=O)(=O)c2ccc(C(=O)OC)n2C)cnc1Oc1ccc(C)cc1` (stereo not drawn) [Compound 51]: the inhibition at 10 µM worked out at 93.7%. The result for `CCCc1ccc(S(=O)(=O)NC(C)c2cnc(Oc3ccc(C)cc3)n2CC)cc1` (stereo not drawn) [Compound 56] reads 57.3%; that for `CCn1c(C(C)NS(=O)(=O)c2ccc(Cl)c(Cl)c2Cl)cnc1Oc1ccc(C)cc1` (stereo not drawn) [Compound 57], 103%.

For the molecule `CCn1c(C(C)NS(=O)(=O)c2c(C)c(C)cc(C)c2C)cnc1Oc1ccc(C)cc1` (stereo not drawn) [Compound 58], the inhibition at 10 µM was determined as 66.4%.

Take `CCn1c(C(C)NS(=O)(=O)c2cccc(Cl)c2Cl)cnc1Oc1ccc(C)cc1` (stereo not drawn) [Compound 59]: the inhibition at 10 µM stood at 101%. As to `CCn1c(C(C)NS(=O)(=O)c2c(C)cccc2Cl)cnc1Oc1ccc(C)cc1` (stereo not drawn) [Compound 60], the inhibition at 10 µM was found to be 64.5%. The result for `CCn1c(C(C)NS(=O)(=O)c2cc(C(F)(F)F)cc(C(F)(F)F)c2)cnc1Oc1ccc(C)cc1` (stereo not drawn) [Compound 62] reads 85.6%. The result for `CCn1c(C(C)NS(=O)(=O)c2cc(Cl)cc(Cl)c2)cnc1Oc1ccc(C)cc1` (stereo not drawn) [Compound 63] reads 95.3%.

On to `CCn1c(C(C)NS(=O)(=O)c2cccc(Cl)c2C)cnc1Oc1ccc(C)cc1` (stereo not drawn) [Compound 64], for which the inhibition at 10 µM is 96.7%. The result for `CCn1c(C(C)NS(=O)(=O)c2ccc(F)c(Cl)c2)cnc1Oc1ccc(C)cc1` (stereo not drawn) [Compound 65] reads 106%. Turning to `CCn1c(C(C)NS(=O)(=O)c2cccc(OC)c2)cnc1Oc1ccc(C)cc1` (stereo not drawn) [Compound 66], the inhibition at 10 µM turned out to be 89.9%. The result for `CCn1c(C(C)NS(=O)(=O)c2cc(F)c(Br)cc2F)cnc1Oc1ccc(C)cc1` (stereo not drawn) [Compound 67] reads 84.6%; that for `CCn1c(C(C)NS(=O)(=O)c2c(C)cc(OC)c(C)c2C)cnc1Oc1ccc(C)cc1` (stereo not drawn) [Compound 68], 64.7%. The result for `CCn1c(C(C)NS(=O)(=O)c2cc(Br)ccc2OC)cnc1Oc1ccc(C)cc1` (stereo not drawn) [Compound 69] reads 82.9%; that for `CCn1c(C(C)NS(=O)(=O)c2cc(F)ccc2C)cnc1Oc1ccc(C)cc1` (stereo not drawn) [Compound 70], 56.8%.

With `CCn1c(C(C)NS(=O)(=O)c2c(C)c(C)c(C)c(C)c2C)cnc1Oc1ccc(C)cc1` (stereo not drawn) [Compound 71], the inhibition at 10 µM was determined as 72%. To `CCn1c(C(C)NS(=O)(=O)c2ccc(Br)c(Br)c2)cnc1Oc1ccc(C)cc1` (stereo not drawn) [Compound 72] belongs 90.1%. The result for `CCn1c(C(C)NS(=O)(=O)c2cc(C)ccc2OC)cnc1Oc1ccc(C)cc1` (stereo not drawn) [Compound 73] reads 74.3%. To `CCn1c(C(C)NS(=O)(=O)c2ccc(Cl)c(Cl)c2)cnc1Oc1ccc(C)cc1` (stereo not drawn) [Compound 74, 3,4-Dichloro-N-[1-(3-ethyl-2(4-methylphenoxy)-3H-imidazol-4-yl)-ethyl]-benzenesulfonamide] belongs 101%.

Take `CCn1c(C(C)NS(=O)(=O)c2ccc(C#N)cc2)cnc1Oc1ccc(C)cc1` (stereo not drawn) [Compound 76]: the inhibition at 10 µM worked out at 89.3%.

For `CCn1c(C(C)NS(=O)(=O)c2c(Cl)cc(Cl)cc2Cl)cnc1Oc1ccc(C)cc1` (stereo not drawn) [Compound 78], the inhibition at 10 µM stood at 66.7%. The result for `CCn1c(C(C)NS(=O)(=O)c2ccc(Cl)cc2Cl)cnc1Oc1ccc(C)cc1` (stereo not drawn) [Compound 79] reads 90.1%; that for `CCn1c(C(C)NS(=O)(=O)c2ccc(F)cc2F)cnc1Oc1ccc(C)cc1` (stereo not drawn) [Compound 80], 61.2%. To `CCn1c(C(C)NS(=O)(=O)c2cc(OC)ccc2OC)cnc1Oc1ccc(C)cc1` (stereo not drawn) [Compound 81] belongs 83.1%.
